Data taken from paper PMC9705314, “Characterization of a new potent and long-lasting single chain peptide agonist of RXFP1 in cells and in vivo translational models” (Scientific Reports, 2022).

How the values were obtained:
[1] = molecular target: T1, RXFP1 (Rattus norvegicus, UniProt Q6R6I6); experiment: Telemetry (heart rate) in conscious SD rats; type: in vivo; conditions: conscious telemetered SD rats, single iv relaxin 1, 3 and 10 µg/kg, n = 5/group
T1 construct: measured in conscious telemetered SD rats; tissue Charles River Laboratories; host or cells: whole animal, male Sprague Dawley rats (heart; renal vasculature)
T1 sequence (Q6R6I6 1-758): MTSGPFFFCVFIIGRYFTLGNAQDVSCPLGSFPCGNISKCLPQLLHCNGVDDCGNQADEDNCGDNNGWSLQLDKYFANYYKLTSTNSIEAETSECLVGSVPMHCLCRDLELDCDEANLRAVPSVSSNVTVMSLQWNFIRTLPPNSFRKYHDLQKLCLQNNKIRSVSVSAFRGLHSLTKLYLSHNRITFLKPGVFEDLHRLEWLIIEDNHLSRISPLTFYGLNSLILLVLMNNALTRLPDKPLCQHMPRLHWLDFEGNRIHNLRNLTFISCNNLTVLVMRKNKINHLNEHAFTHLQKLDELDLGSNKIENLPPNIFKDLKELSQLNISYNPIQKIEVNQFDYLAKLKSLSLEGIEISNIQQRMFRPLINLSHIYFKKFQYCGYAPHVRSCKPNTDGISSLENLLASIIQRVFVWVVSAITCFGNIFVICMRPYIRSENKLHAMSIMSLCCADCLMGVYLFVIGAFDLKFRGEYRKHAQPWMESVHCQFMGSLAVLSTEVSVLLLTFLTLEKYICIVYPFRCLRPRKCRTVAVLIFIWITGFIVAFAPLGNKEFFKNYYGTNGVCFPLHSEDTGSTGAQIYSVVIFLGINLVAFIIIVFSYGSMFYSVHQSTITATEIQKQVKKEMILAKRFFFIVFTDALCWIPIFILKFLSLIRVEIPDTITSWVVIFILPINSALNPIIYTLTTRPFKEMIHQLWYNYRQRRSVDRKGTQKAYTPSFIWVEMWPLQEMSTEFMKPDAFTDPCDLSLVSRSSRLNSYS

[2] = molecular target: T2, RXFP1 (Homo sapiens, UniProt Q9HBX9); experiment: cAMP production in HEK_RXFP1 cells; type: cell-based; design: expressed in transfected cells; conditions: HEK_RXFP1 cells (wild type construct), n = 4 experiments in duplicate
T2 sequence (Q9HBX9 1-757): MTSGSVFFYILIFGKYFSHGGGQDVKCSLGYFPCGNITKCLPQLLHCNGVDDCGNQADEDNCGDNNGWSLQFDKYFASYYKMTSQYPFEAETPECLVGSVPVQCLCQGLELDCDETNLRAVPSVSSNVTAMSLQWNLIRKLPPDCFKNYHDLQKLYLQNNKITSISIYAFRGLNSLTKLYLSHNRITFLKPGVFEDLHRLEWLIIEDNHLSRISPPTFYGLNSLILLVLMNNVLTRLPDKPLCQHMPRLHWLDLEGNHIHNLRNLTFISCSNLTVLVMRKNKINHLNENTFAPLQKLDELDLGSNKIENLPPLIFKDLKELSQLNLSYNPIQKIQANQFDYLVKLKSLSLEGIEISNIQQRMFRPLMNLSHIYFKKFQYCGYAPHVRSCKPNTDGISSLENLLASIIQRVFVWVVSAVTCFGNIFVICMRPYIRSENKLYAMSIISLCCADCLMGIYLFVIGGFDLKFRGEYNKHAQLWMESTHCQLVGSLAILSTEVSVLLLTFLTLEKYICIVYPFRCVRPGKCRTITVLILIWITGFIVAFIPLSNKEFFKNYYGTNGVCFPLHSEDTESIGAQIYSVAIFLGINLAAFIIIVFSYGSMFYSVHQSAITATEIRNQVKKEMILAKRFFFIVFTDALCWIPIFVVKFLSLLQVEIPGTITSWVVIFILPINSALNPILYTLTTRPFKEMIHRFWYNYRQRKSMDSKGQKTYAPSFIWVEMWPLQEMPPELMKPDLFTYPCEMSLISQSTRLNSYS

relaxin
duration of the heart rate effect [1]: 4 to 6 h
cAMP activity [2]: activity was in the same range
